Laboratory results taken from PubChem BioAssay AID330 (DTP/NCI, 2004).
“And” between values parts separate entries of the source, which are not always exact repeats. Identical values can stand only once. Inconclusive results and toxic doses are left out.

Tested on: P388 leukemia ip, CD2F1 mice, survival T/C
Assay: NCI In Vivo Anticancer Drug Screen. Data for tumor model P388 Leukemia (intraperitoneal) in CD2F1 (CDF1) mice
Conditions: endpoint: median survival time, higher = longer survival
Procedure, shortened: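 Mice carrying the transplanted tumor received test compound or vehicle. Survival was recorded in each group, and the value is the treated-group measurement divided by that of the vehicle-treated control group.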

[1] = dose: 50.0 mg/kg/injection, schedule: Q01DX009 (ip), vehicle: saline with Tween-80
[2] = dose: 100.0 mg/kg/injection, schedule: Q01DX009 (ip), vehicle: saline with Tween-80
[3] = dose: 200.0 mg/kg/injection, schedule: Q01DX009 (ip), vehicle: saline with Tween-80
[4] = dose: 50.0 mg/kg/injection, schedule: Q01DX005 (ip), vehicle: saline with Tween-80
[5] = dose: 100.0 mg/kg/injection, schedule: Q01DX005 (ip), vehicle: saline with Tween-80
[6] = dose: 200.0 mg/kg/injection, schedule: Q01DX005 (ip), vehicle: saline with Tween-80
[7] = dose: 60.0 mg/kg/injection, schedule: Q01DX005 (ip), vehicle: Klucel (hydroxypropylcellulose) (HPC)
[8] = dose: 120.0 mg/kg/injection, schedule: Q01DX005 (ip), vehicle: Klucel (hydroxypropylcellulose) (HPC)
[9] = dose: 60.0 mg/kg/injection, schedule: Q01DX005 (ip), vehicle: saline with Tween-80
[10] = dose: 120.0 mg/kg/injection, schedule: Q01DX005 (ip), vehicle: saline with Tween-80
[11] = dose: 240.0 mg/kg/injection, schedule: Q01DX005 (ip), vehicle: saline with Tween-80
[12] = dose: 12.5 mg/kg/injection, schedule: Q01DX005 (ip), vehicle: saline with Tween-80
[13] = dose: 25.0 mg/kg/injection, schedule: Q01DX005 (ip), vehicle: saline with Tween-80
[14] = dose: 100.0 mg/kg/injection, schedule: Q04DX003 (ip), vehicle: saline with Tween-80
[15] = dose: 200.0 mg/kg/injection, schedule: Q04DX003 (ip), vehicle: saline with Tween-80
[16] = dose: 400.0 mg/kg/injection, schedule: Q04DX003 (ip), vehicle: saline with Tween-80

For c1csc(NC(Nc2nccs2)C23CC4CC(CC(C4)C2)C3)n1, the T/C [1] was 96 % of control, the T/C [2] was 101 % of control and the T/C [3] was 100 % of control.
For CC(=O)NC(CCc1ccc(Cl)c(Cl)c1)c1cccc(O)c(=O)c1 (configuration not stated), the T/C (dose: 12.5 mg/kg/injection, schedule: Q01DX009 (ip), vehicle: Klucel (hydroxypropylcellulose) (HPC)) was 105 % of control and 110 % of control and the T/C (dose: 25.0 mg/kg/injection, schedule: Q01DX009 (ip), vehicle: Klucel (hydroxypropylcellulose) (HPC)) was 106 % of control and 122 % of control.
With CCNC(=O)OCc1ccco1 the T/C (dose: 12.5 mg/kg/injection, schedule: Q01DX009 (ip), vehicle: saline) was 92 % of control, the T/C (dose: 25.0 mg/kg/injection, schedule: Q01DX009 (ip), vehicle: saline) was 92 % of control and the T/C [1] was 107 % of control.
For CCOc1ccc(CC)cc1Cc1ccc(OC)cc1, the T/C [4] was 108 % of control, the T/C [5] was 117 % of control and the T/C [6] was 113 % of control.
With CCN(CC)c1ccc2nc3ccc(N=Nc4ccc(O)cc4)cc3[n+](-c3ccccc3)c2c1 the T/C [4] was 118 % of control and the T/C [5] was 114 % of control.
With O=c1[nH]cc(N=Cc2cccc3c2OCO3)c(=O)[nH]1 the T/C (dose: 100.0 mg/kg/injection, schedule: Q01DX001 (ip), vehicle: suspension in saline) was 99 % of control and the T/C (dose: 200.0 mg/kg/injection, schedule: Q01DX001 (ip), vehicle: suspension in saline) was 86 % of control.
In the case of Cc1cn(O)c(=N)c(C(N)=O)n1, the T/C (dose: 37.5 mg/kg/injection, schedule: Q01DX009 (ip), vehicle: saline with Tween-80) is reported as 90 % of control, the T/C (dose: 75.0 mg/kg/injection, schedule: Q01DX009 (ip), vehicle: saline with Tween-80) is reported as 100 % of control and the T/C (dose: 150.0 mg/kg/injection, schedule: Q01DX009 (ip), vehicle: saline with Tween-80) is reported as 107 % of control.
For C[C@@H]1C(=O)OCC2=C3C[C@@H](CC[C@@]3(C)C=CC2=O)[C@H](C)C(=O)OCC2=C3C[C@H]1CC[C@@]3(C)C=CC2=O, the T/C (dose: 50.0 mg/kg/injection, schedule: Q01DX005 (ip), vehicle: Klucel (hydroxypropylcellulose) (HPC)) was 100 % of control, the T/C (dose: 100.0 mg/kg/injection, schedule: Q01DX005 (ip), vehicle: Klucel (hydroxypropylcellulose) (HPC)) was 101 % of control and the T/C (dose: 200.0 mg/kg/injection, schedule: Q01DX005 (ip), vehicle: Klucel (hydroxypropylcellulose) (HPC)) was 95 % of control.
O=C(c1ccc(O)cc1)c1ccc(C(=O)c2ccc(O)cc2)cc1 was tested, and the T/C (dose: 50.0 mg/kg/injection, schedule: Q01DX009 (ip), vehicle: Klucel (hydroxypropylcellulose) (HPC)) was 99 % of control, the T/C (dose: 100.0 mg/kg/injection, schedule: Q01DX009 (ip), vehicle: Klucel (hydroxypropylcellulose) (HPC)) was 97 % of control and the T/C (dose: 200.0 mg/kg/injection, schedule: Q01DX009 (ip), vehicle: Klucel (hydroxypropylcellulose) (HPC)) was 90 % of control.
For NCC(=O)c1ccc2ccccc2c1, the T/C [7] was 105 % of control and the T/C [8] was 106 % of control.
For Cn1c2ccccc2c(=O)c2c(O)cc3c(c21)N=CC(C)(C)O3, the T/C [9] was 96 % of control, the T/C [10] was 93 % of control and the T/C [11] was 93 % of control.
In the case of COC(=O)C1=NNC(C(=O)OC)=NN1, the T/C (dose: 25.0 mg/kg/injection, schedule: Q01DX009 (ip), vehicle: other) is reported as 87 % of control, the T/C (dose: 50.0 mg/kg/injection, schedule: Q01DX009 (ip), vehicle: other) is reported as 106 % of control and the T/C (dose: 100.0 mg/kg/injection, schedule: Q01DX009 (ip), vehicle: other) is reported as 98 % of control. The T/C (dose: 200.0 mg/kg/injection, schedule: Q01DX009 (ip), vehicle: other) was 106 % of control and the T/C (dose: 400.0 mg/kg/injection, schedule: Q01DX009 (ip), vehicle: other) was 103 % of control.
For NC(=O)CNCc1ccccc1, the T/C [4] was 94 % of control, the T/C [5] was 99 % of control and the T/C [6] was 94 % of control.
In the case of COc1cc2cc(c1Cl)NC(=O)CC(OC(=O)C(C)N(C)C(=O)C(C)C)C1(C)OC1C(C)C1CC(O)(NC(=O)O1)C(OC)/C=C/C=C(C)C2OC (configuration not stated), the T/C (dose: 8.0 micrograms/kg/injection, schedule: Q01DX009 (ip), vehicle: distilled water + Tween-80 + alcohol) is reported as 161 % of control, the T/C (dose: 16.0 micrograms/kg/injection, schedule: Q01DX009 (ip), vehicle: distilled water + Tween-80 + alcohol) is reported as 155 % of control and 179 % of control and the T/C (dose: 32.0 micrograms/kg/injection, schedule: Q01DX009 (ip), vehicle: distilled water + Tween-80 + alcohol) is reported as 154 % of control and 184 % of control. The T/C (dose: 64.0 micrograms/kg/injection, schedule: Q01DX009 (ip), vehicle: distilled water + Tween-80 + alcohol) was 86 % of control.
For CC1(C)OC2CC(=O)OCC23C1=C(O)C(=O)C1(C)C3CCC2(C)C(c3ccoc3)OC(=O)C3OC321 (configuration not stated), the T/C (dose: 0.5 mg/kg/injection, schedule: Q01DX009 (ip), vehicle: saline + alcohol) was 101 % of control, the T/C (dose: 1.0 mg/kg/injection, schedule: Q01DX009 (ip), vehicle: saline + alcohol) was 104 % of control and the T/C (dose: 2.0 mg/kg/injection, schedule: Q01DX009 (ip), vehicle: saline + alcohol) was 106 % of control. For the same compound, the T/C (dose: 4.0 mg/kg/injection, schedule: Q01DX009 (ip), vehicle: saline + alcohol) was 106 % of control and the T/C (dose: 8.0 mg/kg/injection, schedule: Q01DX009 (ip), vehicle: saline + alcohol) was 101 % of control.
CC(C)(C)N1COc2cc3c(cc2C1)OCN(C(C)(C)C)C3 was tested, and the T/C (dose: 12.5 mg/kg/injection, schedule: Q01DX009 (ip), vehicle: saline with Tween-80) was 110 % of control, the T/C (dose: 25.0 mg/kg/injection, schedule: Q01DX009 (ip), vehicle: saline with Tween-80) was 99 % of control and the T/C [1] was 108 % of control. For the same compound, the T/C [2] was 119 % of control.
In the case of C/C(N=NC(=S)N1CCSCC1)=C1\C=CC=CN1O, the T/C [12] is reported as 97 % of control, the T/C [13] is reported as 100 % of control and the T/C [4] is reported as 107 % of control and 97 % of control. For the same compound, the T/C [6] was 102 % of control.
In the case of CCOC1CC2(O)c3c(cc4c(c3O)C(=O)c3c(O)ccc(O)c3C4=O)OC2O1 (configuration not stated), the T/C (dose: 100.0 mg/kg/injection, schedule: Q01DX001 (ip), vehicle: saline) is reported as 103 % of control, the T/C (dose: 200.0 mg/kg/injection, schedule: Q01DX001 (ip), vehicle: saline) is reported as 109 % of control and the T/C (dose: 400.0 mg/kg/injection, schedule: Q01DX001 (ip), vehicle: saline) is reported as 116 % of control.
Cn1c(C(C)(C)O)cnc1[N+](=O)[O-] was tested, and the T/C [1] was 103 % of control and the T/C [3] was 94 % of control.
With CCC(=O)c1c(O)cc(O)cc1O the T/C (dose: 50.0 mg/kg/injection, schedule: Q04DX003 (ip), vehicle: saline with Tween-80) was 103 % of control, the T/C [14] was 103 % of control and the T/C [15] was 102 % of control. The T/C [16] was 103 % of control.
With COc1ccc2[nH]cc(/C=C(/C)c3ccncc3)c2c1 the T/C (dose: 100.0 mg/kg/injection, schedule: Q01DX001 (ip), vehicle: saline with Tween-80) was 102 % of control, the T/C (dose: 200.0 mg/kg/injection, schedule: Q01DX001 (ip), vehicle: saline with Tween-80) was 108 % of control and the T/C (dose: 400.0 mg/kg/injection, schedule: Q01DX001 (ip), vehicle: saline with Tween-80) was 108 % of control.
In the case of O=C(NCCCCNCCCNC(=O)c1ccc([N+](=O)[O-])cc1)c1ccc([N+](=O)[O-])cc1, the T/C [9] is reported as 97 % of control, the T/C [10] is reported as 92 % of control and the T/C [11] is reported as 98 % of control.
With COc1cc2c3c(c1OC)-c1[nH]c4ccccc4c1C1CCCN(CC2)C31 (configuration not stated) the T/C [7] was 95 % of control, the T/C [8] was 96 % of control and the T/C (dose: 240.0 mg/kg/injection, schedule: Q01DX005 (ip), vehicle: Klucel (hydroxypropylcellulose) (HPC)) was 98 % of control.
For CN(C)CCCN1c2ccccc2Cc2ccccc21, the T/C [12] was 111 % of control, the T/C [13] was 108 % of control and the T/C [4] was 100 % of control and 111 % of control. The T/C [5] was 114 % of control.
CC1=NN(C(=O)c2cccnc2)C(=O)C1N=Nc1ccc(S(=O)(=O)N=C(N)N)cc1 (configuration not stated) was tested, and the T/C [14] was 91 % of control, the T/C [15] was 92 % of control and the T/C [16] was 88 % of control.
With CCOC(=O)C(NC(C)=O)(C(=O)OCC)c1ccc(N)cn1 the T/C (dose: 100.0 mg/kg/injection, schedule: Q04DX003 (ip), vehicle: saline) was 99 % of control, the T/C (dose: 200.0 mg/kg/injection, schedule: Q04DX003 (ip), vehicle: saline) was 103 % of control and the T/C (dose: 400.0 mg/kg/injection, schedule: Q04DX003 (ip), vehicle: saline) was 98 % of control.
